This is an account of results in patent publication US6686341B1, “Nutritional compositions which contain slightly negatively charged, non-digestible polysaccharides and use thereof for reducing transport through tight junctions” (N.V. Nutricia, priority 1999, dated 2004).

This assay deals with tight junctions (duodenum biopsies). Description: Ussing chamber: HRP permeability of duodenum suction biopsies from children suffering from microvillus inclusion disease. Format: cell-based, human. Particulars: after adding 4.2 g to the luminal compartment. An excerpt:
Suction biopsies of the duodenum were taken from two children suffering from microvillus inclusion disease.

Consider carboxydextran [70 kD carboxydextran], for which the “HRP in the paracellular spaces or tight junctions by electron microscopy” value is “No further HRP could be detected”.
